Measurements: patent publication US20230103554A1, “TNFa SIGNALING [sequence] TUMOR-PROMOTING INFLAMMATION THAT CAN BE TARGETED TO THERAPY” (Baylor College of Medicine, priority 2020, published 2023)

Assays:
murine CD31 = assay: Murine CD31 immunofluorescence of xenograft tumors (angiogenesis); assay type: in vivo, mouse; conditions: CHLA-255-luc/monocyte tumors
Excerpt: (FIG. 17A) Tumors recovered from mice in FIG. 16 were snap frozen in OTC media, thin sectioned, and stained for murine CD31 expression (red) and DAPI counterstain (blue). Results shown are representative images from five fields of view (FOVs) per tumor, with five tumors per group. Scale bar 50 μm. (FIG. 17B) Total number of CD31+ regions per FOV with box and whisker plot showing quartiles±range (Ctrl n=15, Etan n=25). (FIG. 17C) Size of each CD31+ area quantified per FOV; shown is median CD31+ area per FOV with box and whisker plot showing quartiles±range (Ctrl n=15, Etan n=25) (FIG. 17D) Longest distance across each CD31+ area (Max Feret distance) per FOV; shown is median distance per FOV with box and whisker plot showing quartiles±range (Ctrl n=15, Etan n=25). (FIG. 17E) Eukaryotic mRNA-seq was performed on tumor samples, and mouse transcripts were excluded from analysis by XenoFilterR program. Differentially regulated genes were identified using two-fold expression difference and adjusted P value<0.05 as cutoffs.
Tumors from in vivo experiments were snap-frozen in OTC Media (Tissue-Tek, VWR) and cryo-sectioned into 5 μm thin sections (Texas Children's Hospital Histology Core, Houston, Tex.). Samples were fixed and permeabilized in ice-cold acetone for 10 minutes at −20 C and blocked in TBS containing 5% normal goat serum (CST) and 1% BSA (Sigma) for 2 hours at RT. Rat anti-mouse CD31 primary antibody (Invitrogen, clone 390) was diluted 1:10 in staining buffer (TBS, 1% NGS, 1% BSA) overnight at 4 C. […] Slides were counterstained with 1 μg/mL DAPI (BD Biosciences) for five minutes and mounted with fluorescence mounting media (Fluoromount G, Invitrogen). […] Images were processed and analyzed using FIJI/ImageJ software (NIH). To quantify CD31+ staining, images were thresholded (default, 1800 MIN, Infinity MAX), converted to binary, and analyzed using the FIJI/ImageJ “Analyze Particle” function excluding regions smaller than 25 μm2. […]

CHLA-255-luc = assay: NB luminescence growth/viability in monocyte co-culture; assay type: cell-based, human; conditions: 10 μg/mL etanercept
Experimental: (FIG. 8A) Luciferase expressing CHLA-255-luc and SK-NAS-luc were cultured in 1-16,000 pg/mL rhTNF for 48 hours and viability of the cells was measured by luminescence. Data was normalized to untreated control and graphed as % Viability versus Log10 of TNF concentration.
(15A) TNFα level within co-culture supernatant was determined by TNFα ELISA. Mean TNFα concentration±SD of representative data from two monocyte donors run in triplicate. (FIG. 15B) Supernatant IL-6 levels were determined by ELISA. Mean IL-6 concentration±SD of representative data from two monocyte donors run in triplicate (FIG. 15C) Intracellular IκBα expression level within CD14+GD2− monocyte population was determined by flow cytometry and IκBα MFI was normalized to monocyte only control. Mean normalized IκBα MFI±SD and representative from experiments with two monocyte donors run in triplicate. (FIG. 15D) Intracellular IκBα expression level within CD14-GD2+NB population was determined by flow cytometry and IκBα MFI was normalized to NB only control. Mean normalized IκBαMFI±SD, representative from experiments with two monocyte donors run in triplicate. (FIG. 15E) Multiplex Luminex cytokine assay was performed on co-culture supernatants. […] NB luminescence was used to evaluate relative viability of cell line. Results are normalized mean luminescence±SD, n=6 replicates per condition. […] Cells undergoing multiple (2+) divisions were quantified as a percentage of total cells and normalized to NB (0) and Ctrl (1). […]
Monocytes were directly cultured with wild-type or TNF, TNFR1, TNFR2 KO NB cell lines in ULA plates for 24 hours. Activation of NF-kB in monocytes and NB was measured by flow cytometry and cytokine production measured by ELISA from co-culture supernatant. To evaluate the contact-dependence of monocyte activation by NB, monocytes were cultured in ULA plates with seven-day NB conditioned medium mixed 1:1 with complete monocyte medium for 24 hours and analyzed for IL-6 production. […] Luminescence was measured using a TECAN Spark plate reader (TECAN). […] CellTrace Violet expression was analyzed by flow cytometry.

[1] = test system: CHLA-255 monolayer and monocytes; assay: Adherence of CD14+ monocytes to NB monolayer; assay type: cell-based, human; conditions: CHLA-255, 10 μg/mL etanercept, four days
Experimental: Cultures were imaged at 10× magnification using Nikon DS-Fi1/Elements Software. Scale bar 50 μm. (FIG. 26B) CHLA-255 was grown to 25% confluence in 12-well tissue culture plates and overlaid with freshly isolated human monocytes. […] Non-adherent cells were gently washed with PBS before mechanical dissociation to release adherent cells. Adherent CD14+ monocytes were quantified relative to NB from samples run in triplicate. **** p<0.0001;

etanercept
vessel formation by CD31 immunofluorescence (murine CD31; vs IgG control): failed to form distinct vessels
average area of CD31+ regions per FOV (murine CD31; vs control): significantly smaller
vessel length (maximum linear distance across CD31+ regions) (murine CD31; vs control): significantly shorter
monocyte-induced proliferation above baseline (luminescence) (CHLA-255-luc; CHLA-255-luc + monocytes, 72 hours (FIG. 8B)): reduces this
NB luminescence (growth/viability) increase induced by monocytes (CHLA-255-luc; CHLA-255-luc + monocytes, 72 hours, vs IgG control (FIG. 15F)): completely abrogated the effect of monocytes on NB cells
effect of monocyte-induced TNF signaling on NB cells (CHLA-255-luc; CHLA-255-luc and SK-N-AS-luc + monocytes, 72 hours (FIG. 8B)): reversed the effect of monocyte-induced TNF signaling on NB cells
adherence of CD14+ monocytes to NB monolayer [1]: decreased the adherence
